Test results reported in US20130326734A1, “COMPOSITIONS AND METHODS FOR CONTROLLING CARBON DIOXIDE- (CO2-) REGULATED STOMATAL APERTURES, WATER TRANSPIRATION AND WATER USE EFFICIENCY IN PLANTS” (THE REGENTS OF THE UNIVERSITY OF CALIFORNIA, priority 2011, published 2013).
Marks after values point to notes of the source that are not given here.

Assays:
[1] = system: intracellular pH of Arabidopsis guard cells; assay: Fluorescence imaging of guard cells expressing the pH sensor Pt-GFP; assay type: cell-based
Protocol: Fluorescence imaging was performed with a TE300 inverted microscope using a TE-FM Epi-Fluorescence attachment (Nikon) as previously described (Allen et al, 2000). Fluorescence images at excitation wavelengths of 470 nm and 440 nm were taken every 2 s using light from a 75-Watt xenon short arc lamp (Osram, Germany). […] neutral density filters were used to reduce bleaching of fluorescent reporter. Metafluor software (MDS, Inc.) was used to control filter wheels, shutter and COOLSNAP™ (CoolSNAP) CCD camera from Photomerics when recording and also processing raw data. The fluorescence ratio F470/F440 of Pt-GFP was analyzed as a detection of pH shifts (Schulte et al, 2006). […]
For recording intracellular Pt-GFP fluorescence in response to changes in extracellular pH incubation buffers, the pH of incubation buffers containing 10 mM MES, 10 mM KCl and 50 μM CaCl2 at 5.0 and 7.5 was adjusted by adding Tris-HCl. […] For recording intracellular Pt-GFP fluorescence in response to constant extracellular pH and added weak acid, the perfusion buffers contained 10 mM MES, 10 mM KCl and 50 μM CaCl2, pH 5.6 supplemented with the indicated concentrations of sodium butyrate. […] Background fluorescence intensities at 470 nm were measured in regions lacking guard cells and are also shown for the corresponding experiments.

[2] = system: voltage-dependent anion channels (R-type anion channels) in Arabidopsis hypocotyl cells; settings: Arabidopsis hypocotyl cells (Frachisse et al, 1999); cited from earlier work
[3] = system: S-type anion channel currents in Arabidopsis guard cell protoplasts; assay: Whole-cell patch-clamp recording of S-type anion currents in guard cell protoplasts; assay type: cell-based; settings: for current amplitude activated by bicarbonate at a voltage of −146 mV: 13.5 mM total bicarbonate; for HCO3− activated S-type anion current at a voltage of −146 mV: 11.5 mM [HCO3−]i and 2 mM [CO2]; for I (pA) at −146 mV: wild type Col-0 guard cells, pipette pH 7.1
Protocol: The interpulse period was 5 s. Liquid junction potentials (LJP) were determined using Clampex 10.0. No leak subtraction was applied for all current-voltage curves. Steady-state currents were the average currents during the last 500 ms of pulses. Detail contents of solutions are discussed, below (see “supplementary data”). Bicarbonate (CsHCO3) was freshly dissolved in the pipette solution before patch clamp experiments and pH was adjusted to the indicated values. The pipette solution was stored using air-tight precision glass syringes during patch clamp experiments to slow CO2 equilibration with the surrounding air and was not stored overnight. […] [HCO3^−] represents the free bicarbonate concentration; [CO2] represents the free CO2 concentration. […] To independently measure CO2 concentrations in the solutions at different pH values, an InPro 5000 CO2 sensor (Mettler Tolego 400, Mettler-Toledo Inc, USA) was used for dissolved CO2. The InPro 5000 sensor employs a gas permeable silicone membrane. The significance of differences between data sets was assessed by noncoupled double-tailed Student's t-test analysis. Values of P<0.05 were considered statistically significant.
For experiments analyzing effects of protons on S-type anion currents, the pipette solution contained 150 mM CsCl, 2 mM MgCl2, 6.7 mM EGTA, 0.6 mM CaCl2 (2 μM [Ca^2+]i), 5 mM Mg-ATP, 5 mM Tris-GTP, 1 mM Mes/Tris, pH 6.1. For experiments with pipette solution at pH 7.8, the pipette medium contained 150 mM CsCl, 2 mM MgCl2, 2 μM free [Ca^2+]i, 5 mM Mg-ATP, 5 mM Tris-GTP, 1 mM HEPES/Tris. Calcium affinities of EGTA and free Ca^2+ concentrations were calculated using the WEBMAXC tool (http://www.stanford.edu/-epatton/webmaxc/webmaxcE.htm), which considers pH, [ATP] and ionic conditions. The bath solution contained 30 mM CsCl, 2 mM MgCl2, 5 mM CaCl2 and 10 mM Mes/Tris, pH 5.6.

[4] = system: Arabidopsis intact leaves; assay: Stomatal conductance measurements of intact leaves in response to imposed [CO2] (Li-6400 gas exchange analyzer); assay type: in vivo
Protocol: Stomatal conductance measurements of 5-week-old plants in response to the imposed [CO2] at a light (PAR) fluence rate of 150 μmol m^−2s^−1 were conducted with a Li-6400 gas exchange analyzer with a fluorometer chamber (Li-Cor Inc.) as described-previously (Hu at al, 2010). To reduce the wilting of abi1-1 and abi1-2 mutant leaves, all plants ware analyzed with a humidifier that humidified the air surrounding plants to ˜75-85%. Relative stomatal conductance values of intact leaves were calculated by normalization relative to 365 or 400 ppm just before transition to 800 ppm [CO2]. Data shown are mean±s.e. of at least 3 leaves per genotype in the same experimental set.

CCCC(=O)[O-].[Na+] [sodium butyrate]
ratiometric fluorescence (F470/F440) of Pt-GFP, intracellular pH ([1]; intact epidermes perfused with sodium butyrate-containing MES buffers, pH 5.6): clear shifts

O=C(O)O [bicarbonate]
relative permeability ratio PHCO3−PCO− [2]: 0.8 | current amplitude activated by bicarbonate at a voltage of −146 mV ([3]; Col-0 wild type guard cells, 2 μM [Ca2+]i, n=10): −59±5.9 pA | whole-cell current at a voltage of −144 mV ([3]; Col-0 wild type, extracellular bath perfusion with 13.5 mM total bicarbonate (11.5 mM free HCO3−, 2 mM CO2) pH 7.1, n=6): −17±5 pA | HCO3− activated S-type anion current at a voltage of −146 mV ([3]; Ler wild type guard cells, 2 μM [Ca2+]i, n=7): −51±4.3 pA | activation of anion currents ([3]; ca1;ca4 double mutant guard cells, 13.5 mM total bicarbonate (11.5 mM free [HCO3−]i/2 mM free [CO2]) pH 7.1, 2 μM [Ca2+]i): activated anion currents | activation of S-type anion currents ([3]; ht1-2 guard cells, 5.75 mM free [HCO3−]i and 1 mM free [CO2] pH 7.1, 2 μM [Ca2+]i, P<0.01): significant activation | activation of S-type anion currents ([3]; ht1-2 guard cells, 5.75 mM free [HCO3−]i, [Ca2+]i buffered to 0.15 μM): no significant S-type anion current activation | reversal potential of CO2+HCO3− activated whole-cell currents ([3]; imposed chloride equilibrium potential +31.1 mV, n=8): +24.0±3.6 mV | HCO3− activated S-type anion current at a voltage of −146 mV ([3]; ost1-2 mutant guard cells, 2 μM [Ca2+]i, n=6): −25.2±1.9 pA | current amplitude activated by bicarbonate at a voltage of −146 mV ([3]; ost1-3 mutant guard cells, 2 μM [Ca2+]i, n=6): −24±1.9 pA | anion currents in the presence of bicarbonate ([3]; slac1-1 mutant guard cell protoplasts, 11.5 mM free [HCO3−]i and 2 mM [CO2], similar to control, P>0.05): only small anion currents | I (pA) at −146 mV ([3]; [Ca^2+]i 0.15 μM, free [HCO3]i 11.5 mM): −22.3 ± 2.3^c pA | I (pA) at −146 mV ([3]; [Ca^2+]i 0.6 μM, free [HCO3]i 11.5 mM): −27.3 ± 4.5^f pA | I (pA) at −146 mV ([3]; [Ca^2+]i 2 μM, free [HCO3]i 5.75 mM): −21.8 ± 3.2^d pA | I (pA) at −146 mV ([3]; [Ca^2+]i 2 μM, free [HCO3]i 11.5 mM): −58.7 ± 5.9^e pA | activation of S-type anion currents ([3]; wild type, 13.04 mM free [HCO3−] with 0.46 mM free [CO2] at pH 7.8, 2 μM [Ca2+]i, P<0.05): S-type anion currents were activated | reversal potential of whole-cell S-type anion currents ([3]; wild type, 50 mM total bicarbonate in pipette pH 7.1 (43.4 mM free [HCO3−]i, 6.6 mM free [CO2]), n=4): +26.0±0.9 mV | relative permeability ratio of PHCO3−/PCi− ([3]; wild type, 50 mM total bicarbonate, estimated using the Goldman equation): 0.06±0.01 | activation of S-type anion currents by extracellular application ([3]; wild type, bath perfused 2 min with 11.5 mM free [HCO3−] and 2 mM [CO2] at pH 7.1): No large S-type anion currents were activated

O=C=O [CO2, carbon dioxide]
initial rate of stomatal conductance change ([4]; abi1-1 mutant plants, [CO2] shifted from 400 to 800 ppm for 30 min, ~75-85% humidity): -0.035 ± 0.007 mmol H2O m^-2 s^-1 min^-1 | initial rate of stomatal conductance change ([4]; abi2-1 mutant plants, [CO2] shifted from 400 to 800 ppm for 30 min, ~75-85% humidity): -0.037 ± 0.007 mmol H2O m^-2 s^-1 min^-1 | initial rate of stomatal conductance change ([4]; pyr1;pyl1;pyl2;pyl4 mutant plants, [CO2] shifted from 365 to 800 ppm for 30 min): −0.035±0.008 mmol H2O m^−2 s^−1 min^−1 | initial rate of stomatal conductance change ([4]; pyr1;pyl1;pyl2;pyl4 mutant plants, first 30 min upon shifting [CO2] from 800 to 100 ppm): 0.022±0.002 mmol H2O m^−2 s^−1 min^−1 | initial rate of stomatal conductance change ([4]; wild type plants, [CO2] shifted from 365 to 800 ppm for 30 min): −0.038±0.014 mmol H2O m^−2 s^−1 min^−1 | initial rate of stomatal conductance change ([4]; wild type plants, [CO2] shifted from 400 to 800 ppm for 30 min, ~75-85% humidity): −0.041±0.01 mmol H2O m^−2 s^−1 min^−1 | initial rate of stomatal conductance change ([4]; wild type plants, first 30 min upon shifting [CO2] from 800 to 100 ppm): 0.042±0.013 mmol H2O m^−2 s^−1 min^−1 | guard cell intracellular pH fluorescence (Pt-GFP) ([1]; CO2 bubbled in extracellular perfusion buffers repeatedly shifted from 0 ppm to 800 ppm): no clear shifts | activation of S-type anion channel currents ([3]; wild type, 2 mM intracellular free [CO2] (1.1 mM free [HCO3−]i) at pH 6.1, P>0.05): not activated
